We go through one molecule from paper PMC9032718, “Eltrombopag as an Allosteric Inhibitor of the METTL3-14 Complex Affecting the m^6A Methylation of RNA in Acute Myeloid Leukemia Cells” (Pharmaceuticals, 2022).

The target in assay [1] is T1, METTL3-14 complex (Homo sapiens, UniProt Q86U44).
T1 construct: genes encoding the full-length and MTase domain of human METTL3; METTL3-14 FL: full length of METTL3-14; 10x His (thrombin-cleavable) (cleaved yes); made in house; host or cells: Trichoplusia ni (Hi5) cells co-infected with two baculoviruses (virus made in Sf9)
T1 sequence (Q86U44 whole entry, one chain of several, the tested form may be a part): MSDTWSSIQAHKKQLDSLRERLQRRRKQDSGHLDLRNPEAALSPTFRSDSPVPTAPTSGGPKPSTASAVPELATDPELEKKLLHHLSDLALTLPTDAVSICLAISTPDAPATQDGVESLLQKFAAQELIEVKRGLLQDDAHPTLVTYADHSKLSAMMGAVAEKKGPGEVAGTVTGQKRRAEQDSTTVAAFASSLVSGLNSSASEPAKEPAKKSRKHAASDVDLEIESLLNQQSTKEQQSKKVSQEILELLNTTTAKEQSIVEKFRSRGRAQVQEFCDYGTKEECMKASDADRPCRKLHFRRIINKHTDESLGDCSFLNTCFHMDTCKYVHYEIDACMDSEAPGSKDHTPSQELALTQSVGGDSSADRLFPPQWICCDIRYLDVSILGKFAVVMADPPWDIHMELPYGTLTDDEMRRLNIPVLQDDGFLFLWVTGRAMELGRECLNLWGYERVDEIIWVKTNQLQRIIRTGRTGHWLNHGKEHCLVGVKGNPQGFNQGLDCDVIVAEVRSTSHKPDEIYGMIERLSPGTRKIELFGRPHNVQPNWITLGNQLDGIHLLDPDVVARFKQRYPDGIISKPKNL
The assay is described as follows: METTL3-14 enzyme-based bioluminescence assay (screening assay). It is filed as biochemical. The following applies: IC50 not affected by SAM 50-1600 nM or RNA 25-800 nM. The protocol: (§1) An enzymatic bioluminescence assay was established to identify the METTL3-14 inhibitor through screening. […] METTL3-14 activity was assessed by measuring the luminescence using a Victor multilabel reader (PerkinElmer, Waltham, MA, USA). The IC50 values were calculated by a nonlinear regression analysis using OriginPro 9.1 software (OriginLab).
(§2) To confirm the mechanism of action of eltrombopag in the METTL3-14 complex, 30 nM METTL3-14 and serially diluted eltrombopag were reacted with various concentrations of SAM or RNA substrate and saturating concentrations of the other substrate (3 μM SAM or 2 μM RNA substrate) for 20 min. To evaluate the inhibitory activity in a single form of METTL3 and METTL14, 1 μM of METTL3 and 300 nM of METTL14 were incubated with 1 μM of SAM, 500 nM of RNA substrates, and serially diluted eltrombopag for 5 h. To measure the inhibitory activity in the truncated form of the METTL3-14 complex, 1 μM of the truncated METTL3-14 complex was reacted with 1 μM of SAM, 500 nM of RNA substrates, and serially diluted eltrombopag for 5 h.

The subject of assay [2] is AML cell line transplanted mouse. More on the design: method as in PMID 22627766. As to conditions: mouse model transplanted with an AML cell line; cited from earlier work.
For assay [3], the target named is T2, METTL14 (Homo sapiens, UniProt Q9HCE5).
T2 construct: 10x His (thrombin-cleavable); made in house; host or cells: insect cells, baculovirus (pVL1393)
T2 sequence (Q9HCE5 1-456): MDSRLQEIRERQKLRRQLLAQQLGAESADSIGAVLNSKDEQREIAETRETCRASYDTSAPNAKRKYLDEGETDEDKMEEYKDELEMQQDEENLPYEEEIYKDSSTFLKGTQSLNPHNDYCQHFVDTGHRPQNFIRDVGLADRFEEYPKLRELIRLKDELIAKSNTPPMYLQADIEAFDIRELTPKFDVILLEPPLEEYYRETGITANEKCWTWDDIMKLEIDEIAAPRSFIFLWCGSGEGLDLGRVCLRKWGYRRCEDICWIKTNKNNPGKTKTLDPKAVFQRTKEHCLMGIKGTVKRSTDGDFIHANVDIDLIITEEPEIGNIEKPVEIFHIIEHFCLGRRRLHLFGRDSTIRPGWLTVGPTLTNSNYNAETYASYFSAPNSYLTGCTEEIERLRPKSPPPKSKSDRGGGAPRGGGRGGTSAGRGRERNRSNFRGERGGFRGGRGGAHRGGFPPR
The assay can be described thus: Bioluminescence enzyme assay, single form of METTL14. The following applies: 36 μM eltrombopag; 300 nM METTL14, 5 h; read-out: % inhibition, single subunit enzyme form of METTL14. It is filed as biochemical. The protocol:
as §1, §2

The target of assay [4] is T3, truncated METTL3-14 complex (Homo sapiens, UniProt Q86U44).
T3 construct: MTase domain of human METTL3 (residues 369 to 580); METTL14 (residues 106 to 396); 10x His (thrombin-cleavable) (cleaved yes); made in house; host or cells: Trichoplusia ni (Hi5) cells co-infected with two baculoviruses
T3 sequence (Q86U44 369-580, one chain of several): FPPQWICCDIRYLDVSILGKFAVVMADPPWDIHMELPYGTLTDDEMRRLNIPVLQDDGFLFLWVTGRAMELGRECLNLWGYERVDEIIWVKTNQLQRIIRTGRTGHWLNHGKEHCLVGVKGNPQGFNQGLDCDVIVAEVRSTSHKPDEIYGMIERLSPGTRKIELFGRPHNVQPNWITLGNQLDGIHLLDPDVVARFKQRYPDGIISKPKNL
The assay can be described thus: Bioluminescence enzyme assay, truncated form of METTL3-14 (methyltransferase domain). Format: biochemical. The protocol: as §1, §2

Assay [5] relates to THP-1 cells. The assay can be described thus: Anti-proliferative assay (EZ-cytox), THP-1. Format: cell-based. As to conditions: Homo sapiens, THP-1, 72 h. As for the experimental part:
The MOLM-13, MOLM-14, HL60, MV4-11, and THP-1 cells were seeded in white 96-well clear bottomed plates with 100 μL of medium (5000 cells/well). The plated cells were treated with serially diluted compounds and incubated for 72 h at 37 °C. After incubation, 10 μL of EZ-cytox kit reagent from the EZ-cytox cell viability assay kit (DaeiLab, Seoul, Korea) was added to each well and then incubated for 3 h at 37 °C. The absorbance of metabolically active cells was measured at a wavelength of 450 nm using a Victor multilabel reader (PerkinElmer). The GI50 values were calculated by nonlinear regression analysis using OriginPro 9.1 software (OriginLab).

For orientation: inhibition means how much of the control response was suppressed. As a reminder, the IC50 is the concentration at which inhibition is half-maximal. In general, GI50 refers to the concentration at which growth is held to half of that of the control. Read a high GI50 as lower sensitivity of the cells.

For the molecule `CC1=NN(c2ccc(C)c(C)c2)C(=O)/C1=N\Nc1cccc(-c2cccc(C(=O)O)c2)c1O` [Eltrombopag], the “mode of enzyme inhibition” value in assay [1] was “noncompetitive inhibitor”. In addition, the “in-vivo anti-leukemic effect (survival)” value in assay [2] was “prolonging the survival”. Moreover, the inhibition at 36 µM in assay [3] was 59.3%. Besides, the “fold change of IC50, truncated versus full length METTL3-14” value in assay [4] is listed as 3.5 fold. For the same molecule, the IC50 in assay [4] (1 μM truncated complex, 1 μM SAM, 500 nM RNA, 5 h) amounted to 12 µM. For the same molecule, in assay [5], the GI50 turned out to be 22.3 ± 0.4 µM.
